Experiment [1] concerns the target T1, Trypsin (Homo sapiens, UniProt P07477+P07478+P35030). The experiment in a line: Inhibition of trypsin-induced elevation in PAI1 production in HUVEC by ELISA. It counts as cell-based. In general terms: ELISA stands for enzyme-linked immunosorbent assay.
Experiment [2] deals with T1, Trypsin. Kind of experiment: Inhibition of trypsin-induced reduction in tPA production in HUVEC by ELISA. The format is cell-based.
Experiment [3] can be described thus: Inhibition of trypsin by protease assay system.

Structures are written as SMILES. The source made the active and inactive calls. The rule behind the calls is not given here.

The IC50 is the concentration needed to halve the response being measured. A higher IC50 goes with lower potency. For `COc1c(O)cc(O)c2c(=O)cc(-c3ccccc3)oc12` [WOGONIN], at Trypsin [1], the IC50 is 105 µM. Further, at Trypsin [2], the result was inactive.

For the molecule `COc1c(O)cc2oc(-c3ccccc3)cc(=O)c2c1O` [OROXYLIN A], on Trypsin [1], the IC50 worked out at 61 µM. In addition, at Trypsin [2], the result was inactive.

For the molecule `COc1c(O[C@@H]2O[C@H](C(=O)O)[C@@H](O)[C@H](O)[C@H]2O)cc(O)c2c(=O)cc(-c3ccccc3)oc12`, the IC50 at Trypsin [1] was over 1000 µM. Further, at Trypsin [2], the result was inactive.

`O=c1cc(-c2ccccc2)oc2cc(O)c(O)c(O)c12` [BAICALEIN]: the 50% inhibitory concentration (IC50) in experiment [3] was determined as 0.5 µM; at Trypsin [1] it was 3.7 µM. The Activity result at Trypsin [1] and at Trypsin [2] was “Dose-dependent effect” in each case.

`O=C1C[C@@H](c2c(O)cccc2O)Oc2cc(O)cc(O)c21` returned a 50% inhibitory concentration (IC50) on Trypsin [1] of over 1000 µM. The outcome on Trypsin [2] was inactive.

Turning to `COc1c(O)ccc(O)c1-c1cc(=O)c2c(O)cc(O)c(OC)c2o1`, at Trypsin [1], the 50% inhibitory concentration (IC50) worked out at 88 µM. In addition, the result on Trypsin [2] was inactive.

The molecule `O=C(O)[C@H]1O[C@@H](Oc2cc3oc(-c4ccccc4)cc(=O)c3c(O)c2O)[C@H](O)[C@@H](O)[C@@H]1O` [BAICALIN] yielded an IC50 on Trypsin [1] of over 1000 µM. Further, on Trypsin [2], the result was inactive.

Consider `COc1cccc(O)c1-c1cc(=O)c2c(O)c(OC)c(OC)c(OC)c2o1` [SKULLCAPFLAVONE II], for which, at Trypsin [1], the IC50 was determined as 110 µM. Moreover, on Trypsin [2], the outcome was inactive.

Source of the values: ChEMBL document CHEMBL1146428, “Effects of flavonoids isolated from scutellariae radix on fibrinolytic system induced by trypsin in human umbilical vein endothelial cells” (J Nat Prod, 1997).
